Measured values: patent US6900343B1, “Method for the purification of metallocenes” (Basell Polyolefine GmbH, priority 1998, dated 2005)

How the values were obtained:
[1] = Solubility comparison in toluene at room temperature
[2] = Propylene polymerization with supported metallocene/MAO/SiO2 catalyst; details: supported on SiO2 with MAO (Al/Zr=215); liquid propylene, 60° C., 1 hour
Protocol: 35.1 mg (0.047 mmol) of (1) were stirred in 2.1 ml of 30% strength MAO solution in toluene (Al/Zr=215) for 60 minutes at room temperature. 2 g of SiO2 (Grace XPO2107, pretreated at 140° C., 10 mbar, 10 hours) were subsequently added and the mixture was stirred for another 10 minutes. The solvent was removed in an oil pump vacuum.
A dry 2 l reactor was flushed firstly with nitrogen and subsequently with propylene and charged with 1.5 l of liquid propylene. 2 ml of TEA (20% strength in Varsol) were added thereto and the mixture was stirred for 15 minutes. The catalyst system prepared above (0.886 g) was subsequently resuspended in 20 ml of heptane and then injected into the reactor and rinsed in with 15 ml of heptane. The reaction mixture was heated to the polymerization temperature of 60° C. and polymerization was carried out for 1 hour. The polymerization was stopped by venting the remaining propylene. The polymer was dried in a vacuum drying oven. This gave 470 g of polypropylene powder. […] The catalyst activity was 0.53 kg of PP/g of catalyst x h.
27.1 mg (0.047 mmol) of dimethylsilanediylbis(2-methyl-4,5-benzoindenyl)zirconium dichloride were stirred in 2.1 ml of 30% strength MAO solution in toluene (Al/Zr=215) for 60 minutes at room temperature. […]

Row | Compound | solubility [1] | catalyst activity [2]
1 | CCC(C)(C)c1ccc([O][Zr]2([Cl])[C]3(C(C)=Cc4c3ccc3ccccc43)[Si](C)(C)[C]23C(C)=Cc2c3ccc3ccccc23)c(C(C)(C)CC)c1 (stereo not shown) [Compound 6, Dimethylsilanediylbis(2-methyl-4,5-benzoindenyl)-zirconium Monochloride mono(2,4-di-tert-pentylphenoxide)] | about 17.7 mmol/l | 
2 | CC1=Cc2c(ccc3ccccc23)[C]12[Si](C)(C)[C]1(C(C)=Cc3c1ccc1ccccc31)[Zr]2([Cl])[Cl] (stereo not shown) [dimethylsilanediylbis(2-methyl-4,5-benzoindenyl)zirconium dichloride, reference compound] | about 0.36 mmol/l | 0.46 kg of PP/g of catalyst x h
3 | Dimethylsilanediyl-bis(2-methylindenyl)zirconium Monochloride mono(2,4-di-tert-butylphenoxide) [Compound 2] | > 15 mM | 
4 | Cc1cc2ccccc2[c-]1[Si](C)(C)[c-]1c(C)cc2ccccc21.[Cl-].[Cl-].[Zr+4] (stereo not shown) [dimethylsilanediylbis(2-methylindenyl)zirconium dichloride, reference compound] | about 2.1 mmol/l | 
5 | CC1=Cc2c(ccc3ccccc23)[C]12[Si](C)(C)[C]1(C(C)=Cc3c1ccc1ccccc31)[Zr]2([Cl])[O]c1ccc(C(C)(C)C)cc1C(C)(C)C (stereo not shown) [Compound 1, Dimethylsilanediylbis(2-methyl-4,5-benzoindenyl)zirconium Monochloride mono(2,4-di-tert-butylphenoxide)] | > 13 mM | 0.53 kg of PP/g of catalyst x h
